Experimental data: article PMC6934184, “Selective DNA-PKcs inhibition extends the therapeutic index of localized radiotherapy and chemotherapy” (The Journal of Clinical Investigation, 2019)

Target: T1, ACVR1B (ALK4) (Homo sapiens, UniProt P36896)
T1 construct: purchased Thermo Fisher Scientific (Life Technologies) SelectScreen
Test: SelectScreen Z'LYTE
Assay type: biochemical
Method in brief: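 Compound tested in SelectScreen activity assays, Z'LYTE for CSF1R, CDK1/cyclin B and MAP2K6 and Adapta for CAMK1. ATP for CAMK1 was listed as 10, and Km app was used for CSF1R. Results are expressed in percent.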

T1 sequence (P36896 24-505): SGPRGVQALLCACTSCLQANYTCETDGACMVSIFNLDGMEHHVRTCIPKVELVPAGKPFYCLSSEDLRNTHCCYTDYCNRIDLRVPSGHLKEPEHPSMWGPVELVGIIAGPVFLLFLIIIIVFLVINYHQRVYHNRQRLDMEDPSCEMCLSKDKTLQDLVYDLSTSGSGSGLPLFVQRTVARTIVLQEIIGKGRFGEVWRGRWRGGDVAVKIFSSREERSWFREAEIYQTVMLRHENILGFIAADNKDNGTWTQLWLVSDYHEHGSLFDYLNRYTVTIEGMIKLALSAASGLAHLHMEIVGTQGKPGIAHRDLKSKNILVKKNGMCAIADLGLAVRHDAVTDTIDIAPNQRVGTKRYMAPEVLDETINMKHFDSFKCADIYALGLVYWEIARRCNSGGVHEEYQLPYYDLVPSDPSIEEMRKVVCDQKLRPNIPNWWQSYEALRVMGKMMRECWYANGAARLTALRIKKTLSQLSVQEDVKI

With `CN(C(=O)CN1CCOCC1)c1ccc2sc3c(-c4cccc5c(=O)cc(N6CC7CCC(C6)O7)oc45)cccc3c2c1` [NU5455] the inhibition at 1 µM was 2%.
